Measurements from ChEMBL document CHEMBL3351527, “Multitarget drug design strategy: quinone-tacrine hybrids designed to block amyloid-β aggregation and to exert anticholinesterase and antioxidant effects” (J Med Chem, 2014).
The source made the active and inactive calls. No cut-off for these calls is given here.

Tests used:
[1] = Cytotoxicity against rat CGN cells assessed as reduction in cell viability after 24 hrs by MTT assay; format: cell-based
[2] = biological target: Cholinesterase (Homo sapiens, UniProt P06276)
Sequence of Cholinesterase (P06276 whole entry): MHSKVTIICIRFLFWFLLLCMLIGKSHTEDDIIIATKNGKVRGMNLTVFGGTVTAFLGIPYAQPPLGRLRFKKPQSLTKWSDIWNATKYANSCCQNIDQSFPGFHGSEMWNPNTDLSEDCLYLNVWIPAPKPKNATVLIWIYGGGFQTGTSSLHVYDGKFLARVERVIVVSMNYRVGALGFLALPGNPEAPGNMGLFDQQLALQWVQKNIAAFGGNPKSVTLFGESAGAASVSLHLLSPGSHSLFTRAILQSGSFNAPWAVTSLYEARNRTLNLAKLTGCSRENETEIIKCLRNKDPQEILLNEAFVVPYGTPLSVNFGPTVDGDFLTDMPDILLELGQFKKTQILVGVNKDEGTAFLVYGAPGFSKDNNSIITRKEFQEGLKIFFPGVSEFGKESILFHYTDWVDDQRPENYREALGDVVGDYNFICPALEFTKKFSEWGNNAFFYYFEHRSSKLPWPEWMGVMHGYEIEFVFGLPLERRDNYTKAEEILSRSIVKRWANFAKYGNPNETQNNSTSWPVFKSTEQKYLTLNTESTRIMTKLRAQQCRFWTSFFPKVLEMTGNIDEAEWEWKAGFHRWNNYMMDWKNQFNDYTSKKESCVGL
Description: Inhibition of human plasmatic BChE after 5 mins by Ellman method

[3] = biological target: Acetylcholinesterase (Homo sapiens, UniProt P22303)
Sequence of Acetylcholinesterase (P22303 whole entry): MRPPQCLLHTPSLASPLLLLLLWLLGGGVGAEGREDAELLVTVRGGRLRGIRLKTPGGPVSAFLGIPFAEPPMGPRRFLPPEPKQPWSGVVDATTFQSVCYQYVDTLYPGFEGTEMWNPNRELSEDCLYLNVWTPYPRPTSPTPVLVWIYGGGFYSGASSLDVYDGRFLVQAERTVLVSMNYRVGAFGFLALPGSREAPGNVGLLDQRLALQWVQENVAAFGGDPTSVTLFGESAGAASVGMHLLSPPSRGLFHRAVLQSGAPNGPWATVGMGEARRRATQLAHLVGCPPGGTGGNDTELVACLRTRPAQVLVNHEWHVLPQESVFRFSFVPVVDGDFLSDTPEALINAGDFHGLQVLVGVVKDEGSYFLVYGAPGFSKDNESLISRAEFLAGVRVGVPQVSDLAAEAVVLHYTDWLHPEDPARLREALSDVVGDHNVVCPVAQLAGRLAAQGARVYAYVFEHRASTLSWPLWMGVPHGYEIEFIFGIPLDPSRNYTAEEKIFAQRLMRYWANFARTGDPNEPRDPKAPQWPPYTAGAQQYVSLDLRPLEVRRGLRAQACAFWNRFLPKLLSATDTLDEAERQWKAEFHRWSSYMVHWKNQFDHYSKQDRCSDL
Description: Inhibition of human recombinant AChE after 5 mins by Ellman method

[4] = Cytotoxicity against mouse Neuro2a cells assessed as reduction in cell viability after 24 hrs by MTT assay; format: cell-based; details: n2a
[5] = system: Rattus norvegicus; assay: Ex vivo inhibition of AChE in ip dosed Wistar rat telencephalon measured 1 hr post dose by colorimetric method; format: functional, organism-based
[6] = system: Rattus norvegicus; assay: Ex vivo inhibition of AChE in Wistar rat cerebellum at 10 or 50 umol/kg, ip measured 1 hr post dose by colorimetric method; format: functional, organism-based
[7] = system: N2a; assay: Neuroprotective effect in amyloid beta-stimulated mouse Neuro2a cells assessed as increase in cell viability at 12.5 uM after 24 hrs by MTT assay; format: functional, cell-based
[8] = Cytotoxicity against rat CGN cells assessed as cell viability at 12.5 uM after 24 hrs by MTT assay relative to control; format: cell-based; details: read-out: Activity
[9] = Cytotoxicity against mouse Neuro2a cells assessed as cell viability at 12.5 uM after 24 hrs by MTT assay relative to control; format: cell-based, N2a; details: read-out: Activity
[10] = system: T67; assay: Antioxidant activity in tert-butyl hydroperoxide-stimulated human T67 cells assessed as reduction in intracellular ROS production at 10 uM after 24 hrs by spectrophotometry in presence of sulforaphane; format: functional, cell-based
[11] = system: T67; assay: Antioxidant activity in tert-butyl hydroperoxide-stimulated human T67 cells assessed as reduction in intracellular ROS production at 10 uM after 24 hrs by spectrophotometry; format: functional, cell-based
[12] = system: HepG2; assay: Hepatotoxicity in human HepG2 cells assessed as reduction in cell viability at 12.5 to 50 uM after 24 hrs by MTT assay; format: toxicity, cell-based; details: hepg2, 24 h

SMILES | Activity [1] | IC50 [2] [nM] | IC50 [3] [nM] | Activity [4] | inhibition [5] | inhibition [6] | Activity [7] | viability at 24 h, 12.5 µM [8] [%] | viability at 24 h, 12.5 µM [9] [%] | Activity [10] | Activity [11] | Activity [12]
COc1ccc2nc3c(c(NCCNC4=CC(=O)c5ccccc5C4=O)c2c1)CCCC3 | Toxic | 501 | 2530 | Toxic |  |  |  |  |  |  |  | 
COc1ccc2nc3c(c(NCCCNC4=CC(=O)c5ccccc5C4=O)c2c1)CCCC3 | Toxic | 635 | 6150 | Non-toxic |  |  |  |  |  |  |  | 
O=C1C(NCCNc2c3c(nc4cc(Cl)ccc24)CCCC3)=CC(=O)c2c(O)cccc21 | Toxic | 542 | 0.72 | Toxic | Dose-dependent effect | inactive | Active | 73.5 | 85.6 | Active | inactive | 
O=C1C=C(NCCCNc2c3c(nc4cc(Cl)ccc24)CCCC3)C(=O)c2ccccc21 | Toxic | 197 | 5.4 | Non-toxic |  |  |  |  |  |  |  | 
O=C1C(NCCCNc2c3c(nc4cc(Cl)ccc24)CCCC3)=CC(=O)c2c(O)cccc21 | Toxic | 258 | 9.24 | Toxic |  |  |  |  |  |  |  | 
COc1ccc2nc3c(c(NCCCNC4=CC(=O)c5c(O)cccc5C4=O)c2c1)CCCC3 | Toxic | 329 | 348 | Toxic |  |  |  |  |  |  |  | 
O=C1C(Cl)=C(NCCNc2c3c(nc4ccccc24)CCCC3)C(=O)c2ccccc21 | Toxic | 96.1 | 96.1 | Toxic |  |  |  |  |  |  |  | 
O=C1C=C(NCCNc2c3c(nc4cc(Cl)ccc24)CCCC3)C(=O)c2ccccc21 | Toxic | 256 | 1.93 | Non-toxic | Dose-dependent effect | inactive | Active | 75 | 105 | Active | inactive | Non-toxic
O=C1C(Cl)=C(NCCNc2c3c(nc4cc(Cl)ccc24)CCCC3)C(=O)c2ccccc21 | Toxic | 287 | 3.21 | Toxic |  |  |  |  |  |  |  | 
O=C1C=C(NCCCNc2c3c(nc4ccccc24)CCCC3)C(=O)c2ccccc21 | Toxic | 19.1 | 53.7 | Non-toxic |  |  |  |  |  |  |  | 
O=C1C(NCCNc2c3c(nc4ccccc24)CCCC3)=CC(=O)c2c(O)cccc21 | Toxic | 41.4 | 24.7 | Toxic |  |  |  |  |  |  |  | 
O=C1C=C(NCCNc2c3c(nc4ccccc24)CCCC3)C(=O)c2ccccc21 | Toxic | 5.45 | 14.3 | Non-toxic |  |  |  |  |  |  |  | 
O=C1C(Cl)=C(NCCCNc2c3c(nc4cc(Cl)ccc24)CCCC3)C(=O)c2ccccc21 | Toxic | 234 | 8.94 | Toxic |  |  |  |  |  |  |  | 
COc1ccc2nc3c(c(NCCNC4=CC(=O)c5c(O)cccc5C4=O)c2c1)CCCC3 | Toxic | 1280 | 651 | Toxic |  |  |  |  |  |  |  | 
COc1ccc2nc3c(c(NCCNC4=C(Cl)C(=O)c5ccccc5C4=O)c2c1)CCCC3 | Toxic | 970 | 1370 | Toxic |  |  |  |  |  |  |  | 
O=C1C(NCCCNc2c3c(nc4ccccc24)CCCC3)=CC(=O)c2c(O)cccc21 | Toxic | 14.5 | 103 | Toxic |  |  |  |  |  |  |  | 
O=C1C(Cl)=C(NCCCNc2c3c(nc4ccccc24)CCCC3)C(=O)c2ccccc21 | Toxic | 47.8 | 38 | Toxic |  |  |  |  |  |  |  | 
COc1ccc2nc3c(c(NCCCNC4=C(Cl)C(=O)c5ccccc5C4=O)c2c1)CCCC3 | Toxic | 742 | 809 | Toxic |  |  |  |  |  |  |  | 
